Data from the METLIN SMRT retention time set (Domingo-Almenara et al. 2019).

Test: gradient 5% acetonitrile 3 min, to 50% in 2 min, to 85% in 15 min, held 3 min, 100 µL/min
Conditions: column: Zorbax Extend-C18 2.1 x 50 mm; eluents: water / acetonitrile, 0.1% formic acid
Procedure, shortened: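 Mixtures of ~100 pure standards were chromatographed on a Zorbax Extend-C18 column (2.1 × 50 mm, 1.8 μm) at 100 μL/min using water and acetonitrile, each with 0.1% formic acid. Detection used a quadrupole time-of-flight mass spectrometer in positive and negative ionization mode, and data collection spanned 3 months. Retention time was obtained from adduct peaks picked computationally and each checked manually.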

Row | RP-LC retention time | SMILES
1 | 949 s | Clc1cc(-c2nc(-c3cccc(-c4ccn[nH]4)c3)no2)ccn1
2 | 1050 s | Cc1ccc(-c2csc(NC(=O)CSc3nnc(-c4cc5ccccc5o4)n3C)n2)cc1
3 | 848 s | O=C(NC1CCCCCC1)C1CCN(Cc2cc3ccccc3n2Cc2cccc(F)c2)CC1
4 | 674 s | O=C(Nc1ccc2c(c1)OCO2)C1CCCN(c2ccnc(-c3ccc(F)cc3)n2)C1 (centres undefined)
5 | 832 s | N#Cc1ccc(S(=O)(=O)N2CCC(C(=O)NCC(=O)N3CCCc4ccccc43)CC2)cc1
6 | 587 s | CCN1CCN(C(=O)c2ccc(-c3nnc4ccc(NC(=O)C5CC5)cn34)cc2)CC1
7 | 1050 s | Cc1ccccc1-c1noc(Cn2c(=O)n(-c3ccccc3C)c(=O)c3sccc32)n1
8 | 746 s | CCOc1ccc(-n2nnnc2CN2CCN(C(=O)c3cccs3)CC2)cc1
9 | 847 s | Cc1cc2c(=O)n(CC(=O)Nc3cc(Cl)ccc3C)ccc2s1
10 | 711 s | CCN1C(=O)c2cccnc2Sc2cc(CNC(=O)c3ccc(OC)c(OC)c3)ccc21
11 | 718 s | CCOc1cc(=O)n2c(c1C(=O)Nc1cc(OC)cc(OC)c1)CCCC2
12 | 880 s | COc1ccc2[nH]c(C(=O)Nc3ccccc3)cc2c1
13 | 627 s | Cn1nc(N2CCCC(NC(=O)c3cccs3)C2)ccc1=O (centres undefined)
14 | 773 s | O=c1ccc(N2CCC(NS(=O)(=O)c3cccc(F)c3)C2)nn1CC1CC1 (centres undefined)
15 | 855 s | CCSc1nnc(NC(=O)C2CCC(=O)N2S(=O)(=O)c2ccc(C)cc2)s1 (centres undefined)
16 | 935 s | CCOc1ccc(C(C)NC(=O)c2cn3nc(OCC)ccc3n2)cc1 (centres undefined)
17 | 866 s | COC(=O)c1ccc(NS(=O)(=O)c2ccc(-c3c(C)noc3C)cc2)cc1
18 | 788 s | COc1ccc(C(=O)n2nc(C)cc2C)cc1OC
19 | 733 s | CCC(Oc1ccc(=O)n(-c2ccc(F)cc2)n1)C(=O)NCc1ccco1 (centres undefined)
20 | 834 s | CCOC(=O)c1c(S(=O)(=O)N2CCC(C(=O)Nc3cccc(OC)c3)CC2)c(C)n(C)c1C
21 | 1090 s | Cc1ccc(-c2nc(Nc3ccc(Br)cc3)sc2CC(=O)O)c(C)c1
22 | 976 s | Cc1cc(C(=O)Nc2nc(-c3ccc(F)cc3)c(C)s2)no1
23 | 614 s | Cc1cccc2c(C(=O)NC(C)C)cc(N(C)C)nc12

Row | RP-LC retention time | SMILES
24 | 812 s | O=S(=O)(NC1CCCC1)c1ccc(-c2nnc(C3CC3)o2)o1
25 | 781 s | CCN(c1ccccc1)S(=O)(=O)c1cc(-c2[nH]ncc2C(=O)N2CCCC2)oc1C
26 | 772 s | Cc1ccc(C)c(NC(=O)Cn2c(N3CCC(C)CC3)nc(C)cc2=O)c1
27 | 1270 s | CCn1nccc1-c1cccc(-c2noc(-c3c(F)cccc3F)n2)c1
28 | 570 s | OC[C@@H]1CN(Cc2cccc(OC(F)(F)F)c2)C[C@H]1c1ccncc1
29 | 752 s | O=C(Cn1ccc2sccc2c1=O)Nc1ccc(F)c(F)c1
30 | 881 s | Cc1ccc(S(=O)(=O)NCC(=O)Oc2ccccc2C)cc1
31 | 851 s | O=S(=O)(c1ccccc1)N1CCCCC1c1nc(-c2ccccc2)n[nH]1 (centres undefined)
32 | 1060 s | Cn1cc(C2=CCN(S(=O)(=O)c3cccc(Cl)c3)CC2)c2cccnc21
33 | 741 s | Cc1cccc(NC(=O)Cn2ccc3sccc3c2=O)c1C
34 | 570 s | O=C(O)CC1CCCN(c2cn[nH]c(=O)c2)C1 (centres undefined)
35 | 1110 s | Cc1ccc(N2CC(c3noc(-c4ccc(Cl)cc4)n3)CC2=O)cc1 (centres undefined)
36 | 563 s | CCn1nc(C)c(CCNC(=O)c2cc3c(=O)n(Cc4cccnc4)ccc3nc2C)c1C
37 | 1140 s | CCOc1cc(C(=O)Nc2nc(-c3ccc4c(c3)N(C)C(=O)CO4)cs2)cc(OCC)c1OCC
38 | 727 s | O=C(Cn1cccc(-c2nc(-c3ccc(F)cc3)no2)c1=O)N1CCCC1
39 | 823 s | CC1(C(=O)NCc2ccc(F)cc2)Cn2cnc(C(=O)NC3CCCCCC3)c2C(=O)N1C1CC1 (centres undefined)
40 | 967 s | CCSCCOC(=O)C1=C(C)NC2=C(C(=O)C(C(=O)OC)C(C)C2)C1c1ccccc1OC (centres undefined)
41 | 875 s | O=c1c(=O)n(-c2cccc(Cl)c2)ccn1Cc1nc(-c2ccccc2)no1
42 | 837 s | CN(C)C(=O)c1cc2sc(Cl)cc2n1C
43 | 870 s | C[C@@H](c1ncncc1F)[C@@](O)(Cn1cncn1)c1ccc(F)cc1F
44 | 803 s | CC(C)C(=O)NCCc1csc(C2CCCN(C(=O)c3cc4ccccc4[nH]3)C2)n1 (centres undefined)
45 | 699 s | Cc1cc2n(n1)CCCN2C(=O)CCC(=O)N1CCc2ccccc2C1
46 | 1100 s | Cc1sc(-c2cc(C(F)(F)F)[nH]n2)cc1S(=O)(=O)N1CCC(C)CC1

Row | RP-LC retention time | SMILES
47 | 632 s | CCn1c(=O)c(N2CCC(C(=O)NCCCN3CCCCC3C)CC2)nc2cccnc21 (centres undefined)
48 | 812 s | CN1C(=O)c2cccnc2Sc2cc(NC(=O)Cc3ccccc3Cl)ccc21
49 | 810 s | Cc1ccc(NC(=O)Cn2c(N3CCc4ccccc4C3)nc(C)cc2=O)cc1
50 | 1020 s | CCc1nn2c(CNC(=O)c3ccc(C(F)(F)F)cc3)c(-c3ccccc3)nc2s1
51 | 1020 s | Cc1nc(-c2csc(S(=O)(=O)N3CCCC(C(=O)Nc4ccc(F)c(F)c4)C3)c2)no1 (centres undefined)
52 | 994 s | CN(C)c1ccc(-c2noc(C3CC(=O)N(c4ccc(F)cc4)C3)n2)cc1 (centres undefined)
53 | 840 s | Cc1nn2c(CNC(=O)c3ccc(F)cc3)c(-c3ccccc3)nc2s1
54 | 590 s | CN(C1CCC1)C1CCc2nn(Cc3ccccc3)c(=O)n2CC1 (centres undefined)
55 | 718 s | O=C(CC1CCN(C(=O)c2ccc3oc(-c4ccccc4)nc3c2)CC1)NCC1CCCO1 (centres undefined)
56 | 715 s | CCOC(=O)c1nc(NCCCN2CCN(c3cc(C)ccc3C)CC2)c2ccccc2n1
57 | 713 s | O=C(NC1CC1)C1CCN(S(=O)(=O)c2cc(C(=O)N3CCCCCC3)cs2)CC1
58 | 925 s | COCC(C)Nc1ncnc2c1cnn2-c1cccc(Cl)c1 (centres undefined)
59 | 649 s | CCOc1ccc(C2C(C(=O)O)c3ccccc3C(=O)N2CCN2CCOCC2)cc1 (centres undefined)
60 | 627 s | Cc1ncc2c(n1)CCN(C(=O)c1ccc(Cl)cc1)C2
61 | 640 s | CC1CCCN(C(=O)c2ccc3ncnc(N4CCCC4)c3c2)C1 (centres undefined)
62 | 705 s | c1ccc2c(c1)CCC[C@H]2Nc1nc2ccccc2[nH]1
63 | 924 s | O=C(Nc1ccc(C(F)(F)F)cc1)C1CCN(S(=O)(=O)c2ccc3[nH]c(=O)sc3c2)CC1
64 | 687 s | Cc1nn(-c2ccccc2)c(C)c1/C=N/N1CCN(Cc2ccccc2)CC1
65 | 654 s | NC(=O)c1cnc(N[C@@H]2CCCC[C@@H]2N)nc1Nc1cccc(-n2nccn2)c1
66 | 730 s | O=C(Nc1cccc(F)c1)N1CCC2(C1)C(=O)Nc1ccccc12 (centres undefined)
67 | 629 s | COC(=O)c1ccccc1NC(=O)NCCc1c(C)nn(C)c1C
68 | 1070 s | COc1ccccc1N1CCN(c2cc(SCC(=O)Nc3cc(C)cc(C)c3)ncn2)CC1
69 | 680 s | CCOC(=O)c1cnc2nc(C)ccc2c1Nc1ccc2c(c1)OCO2

Row | RP-LC retention time | SMILES
70 | 909 s | Cc1cc(S(=O)(=O)Nc2ccc3c(c2)CCC(=O)N3CC(C)C)ccc1F
71 | 662 s | Cc1ccc(-c2cc3c(=O)n(Cc4noc(CN5CCN(C)CC5)n4)ccn3n2)cc1C
72 | 948 s | CC1(C(=O)NCc2cccc(F)c2)CCCN(S(=O)(=O)c2ccc(F)cc2)C1 (centres undefined)
73 | 668 s | CCc1ccc(NC(=O)N2CCN(c3cc(C)nc(N4CCOCC4)n3)CC2)cc1
74 | 894 s | COc1ccc(NC(=O)c2nnc(COCC(=O)NCCc3c[nH]c4ccc(Cl)cc34)s2)cc1
75 | 703 s | N#Cc1cccc(-c2cn3c(n2)N(C(=O)C2CCCO2)CCC3)c1 (centres undefined)
76 | 725 s | CC(C)CNC(=O)C1CCCN(c2ncnc3c2oc2ccccc23)C1 (centres undefined)
77 | 889 s | COc1ccc(C(=O)N2CCC3(CC2)N=C(c2ccc(Br)cc2)C(=O)N3)cc1
78 | 551 s | CS(=O)(=O)N(Cc1cccnc1)C1CN(C(=O)Nc2ccc3c(c2)OCCO3)C1
79 | 743 s | COCCN1C(=O)[C@H]2CN(Cc3ccccc3OC(F)(F)F)C[C@H]2C1=O
80 | 761 s | CCc1ccc(CNC(=O)C2CCN(Cc3cn(CC)c4ccc(OC)cc34)CC2)cc1
81 | 800 s | COCc1cc2nn(CC(=O)Nc3ccccc3)c(=O)n2c(-c2ccccc2)n1
82 | 570 s | CCc1noc([C@@H]2CC(F)(F)CN2C(=O)Cn2ccnc2)n1
83 | 634 s | O=C1CCN(C(=O)C2COc3ccccc3O2)CCOCCN1 (centres undefined)
84 | 600 s | Cc1oc(-c2[nH]ncc2C(=O)N(C)C)cc1S(=O)(=O)NC(C)C
85 | 943 s | COC(=O)Cn1cnc2c(-c3ccc(Br)cc3)csc2c1=O
86 | 854 s | O=C(NCCn1nc(-c2ccc(Cl)cc2)ccc1=O)c1csc(-c2ccccc2)n1
87 | 742 s | COc1ccc(-c2nc3nc(C)cc(C)n3c2Nc2ccccc2C)cc1
88 | 599 s | CCCn1cnnc1C1CCCCN1Cc1ccc(Br)o1 (centres undefined)
89 | 787 s | CC(C)C(=O)Nc1nc(-c2ccc3c(c2)N(C)C(=O)CO3)cs1
